“And” between values parts separate entries of the source, which are not always exact repeats. Identical values can stand only once. Where a SMILES comes first, the peptide text is derived from it. [ ]: non-standard residue; d: D form. Hyp = O=C(O)[C@@H]1C[C@@H](O)CN1
Tested on: IL-17A
Experiment: Example 9 Luminex, LPS hPBMCs: IL-17A
Format: cell-based, human
Description: Treatment Human PBMCs were pretreated with YY-101, YDE-011 and YDE-043 or reference compound; Xiidra® at various concentration (ranging from 1 nM to 100 uM) for 2 h before stimulation. An equal volume of 0.5% DMSO was used as a vehicle control. Then, the cells were treated with LPS at 5 ug/ml. The supernatants from treated cells were harvested at 24 h and placed in a 96 well for Luminex cytokine & chemokine profiling using a Luminex 200 multiplex assay (Luminex; R&D system, USA).
The main study arm with triplicate wells per group in a 24-well plate: • 1. Blank • 2. PBMC: 0.5% DMSO • 3. PBMC+LPS (5 ug/ml) • 4. PBMC+YY-101 100 uM • 5. PBMC+YY-101 10 uM • 6. PBMC+YY-101 1 uM • 7. PBMC+YY-101 0.1 uM • 8. PBMC+YY-101 0.01 uM • 9. PBMC+LPS (5 ug/ml)+Xiidra®100 uM • 10. PBMC+LPS (5 ug/ml)+Xiidra® 10 uM • 11. PBMC+LPS (5 ug/ml)+Xiidra® 1 uM • 12. PBMC+LPS (5 ug/ml)+Xiidra®0.1 uM • 13. PBMC+LPS (5 ug/ml)+Xiidra®0.01 uM • 14. PBMC+LPS (5 ug/ml)+Xiidra®0.001 uM • 15. PBMC+LPS (5 ug/ml)+YY-101 100 uM • 16. PBMC+LPS (5 ug/ml)+YY-101 10 uM • 17. PBMC+LPS (5 ug/ml)+YY-101 1 uM • 18. PBMC+LPS (5 ug/ml)+YY-101 0.1 uM • 19. PBMC+LPS (5 ug/ml)+YY-101 0.01 uM • 20. PBMC+LPS (5 ug/ml)+YY-101 0.001 uM • 21. PBMC+LPS (5 ug/ml)+YDE-011 100 uM • 22. PBMC+LPS (5 ug/ml)+YDE-011 10 uM • 23. PBMC+LPS (5 ug/ml)+YDE-011 1 uM • 24. PBMC+LPS (5 ug/ml)+YDE-011 0.1 uM • 25. PBMC+LPS (5 ug/ml)+YDE-011 0.01 uM • 26. PBMC+LPS (5 ug/ml)+YDE-011 0.001 uM • 27. PBMC+LPS (5 ug/ml)+YDE-043 100 uM • 28. PBMC+LPS (5 ug/ml)+YDE-043 10 uM • 29. PBMC+LPS (5 ug/ml)+YDE-043 1 uM • 30. PBMC+LPS (5 ug/ml)+YDE-043 0.1 uM • 31. PBMC+LPS (5 ug/ml)+YDE-043 0.01 uM • 32. PBMC+LPS (5 ug/ml)+YDE-043 0.001 uM
Multiplex assay was used to measure 30 cytokines and chemokines. The 1:2, 1:10 and 1:200 diluted cell supernatant and serial dilution of the standard were dispensed into a 96 well plate at 50 ul/well. Then, the pre-mixed cocktail of antibody-coated magnetic beads was dispensed at 50 ul/well and incubated at room temperature for 2 h in a horizontal orbital microplate shaker at 800±500 rpm. The beads were washed using a magnetic device to prevent loss. The biotin-antibody was dispensed in 50 ul of each well and incubated at room temperature for 1 h in a shaker at 800±500 rpm. After washing, streptavidin-PE was added at 50 ul/well and incubated at room temperature for 30 min in a shaker under the same conditions. Finally, after washing, wash buffer (100 ul/well) was added to the plate and incubated in a shaker for 2 min. The Luminex™ 200 setting were set according to the manufacturer's protocol. The data was calculated with a standard five-parameter logistic nonlinear regression analysis of the data (xPonent software 4.2, USA). The levels of cytokine/chemokine are normalized to the live cell counts (1×10^5 cells/mL) and presented as concentrations per mL (pg/mL or ng/mL).

[1] = PBMC + LPS(5 ug/ml) + test article 0.001 uM, Mean
[2] = PBMC + LPS(5 ug/ml) + test article 0.001 uM, single replicates (1st, 2nd, 3rd)
[3] = PBMC + LPS(5 ug/ml) + test article 0.01 uM, Mean
[4] = PBMC + LPS(5 ug/ml) + test article 0.01 uM, single replicates (1st, 2nd, 3rd)
[5] = PBMC + LPS(5 ug/ml) + test article 0.1 uM, Mean
[6] = PBMC + LPS(5 ug/ml) + test article 0.1 uM, single replicates (1st, 2nd, 3rd)
[7] = PBMC + LPS(5 ug/ml) + test article 1 uM, Mean
[8] = PBMC + LPS(5 ug/ml) + test article 1 uM, single replicates (1st, 2nd, 3rd)
[9] = PBMC + LPS(5 ug/ml) + test article 10 uM, Mean
[10] = PBMC + LPS(5 ug/ml) + test article 10 uM, single replicates (1st, 2nd, 3rd)
[11] = PBMC + LPS(5 ug/ml) + test article 100 uM, Mean
[12] = PBMC + LPS(5 ug/ml) + test article 100 uM, single replicates (1st, 2nd, 3rd)

CC(C)C[C@H](NC(=O)[C@H](CCC(N)=O)NC(=O)CNC(=O)[C@@H]1C[C@@H](O)CN1)C(=O)NCC(=O)O [YDE-043] (H-[Hyp]GQLG-OH; N-terminus and C-terminus assumed)
Concentration, IL-17A [1]: 1.0 pg/mL
MFI, Bead name: IL-17A [1]: 0.2
conc/live cell, IL-17A [1]: 0.2 pg/10^5
Concentration, IL-17A [2]: 1.0 pg/mL
MFI, Bead name: IL-17A [2]: 0.5 (2×) and −0.5
conc/live cell, IL-17A [2]: 0.2 pg/10^5 (2×) and 0.0 pg/10^5
Concentration, IL-17A [3]: 1.0 pg/mL
MFI, Bead name: IL-17A [3]: 0.5
conc/live cell, IL-17A [3]: 0.2 pg/10^5
Concentration, IL-17A [4]: 1.0 pg/mL
MFI, Bead name: IL-17A [4]: 0.5
conc/live cell, IL-17A [4]: 0.2 pg/10^5
Concentration, IL-17A [5]: 1.6 pg/mL
MFI, Bead name: IL-17A [5]: 0.8
conc/live cell, IL-17A [5]: 0.3 pg/10^5
Concentration, IL-17A [6]: 2.7 pg/ml and 1.0 pg/ml (2×)
MFI, Bead name: IL-17A [6]: 1.5 and 0.5 (2×)
conc/live cell, IL-17A [6]: 0.5 pg/10^5 and 0.2 pg/10^5 (2×)
Concentration, IL-17A [7]: 1.9 pg/mL
MFI, Bead name: IL-17A [7]: 0.5
conc/live cell, IL-17A [7]: 0.2 pg/10^5
Concentration, IL-17A [8]: 1.0 pg/mL and 2.7 pg/mL
MFI, Bead name: IL-17A [8]: 0.5 and −0.5 and 1.5
conc/live cell, IL-17A [8]: 0.2 pg/10^5 and 0.0 pg/10^5 and 0.5 pg/10^5
Concentration, IL-17A [9]: 1.3 pg/mL
MFI, Bead name: IL-17A [9]: 0.7
conc/live cell, IL-17A [9]: 0.2 pg/10^5
Concentration, IL-17A [10]: 0.1 pg/mL and 2.7 pg/mL and 1.0 pg/mL
MFI, Bead name: IL-17A [10]: 0.0 and 1.5 and 0.5
conc/live cell, IL-17A [10]: 0.0 pg/10^5 and 0.5 pg/10^5 and 0.2 pg/10^5
MFI, Bead name: IL-17A [11]: −0.5
conc/live cell, IL-17A [11]: 0.0 pg/10^5
MFI, Bead name: IL-17A [12]: −0.5
conc/live cell, IL-17A [12]: 0.0 pg/10^5

Source: patent US20230146455A1, “TREATMENT OF INFLAMMATORY DISEASES WITH PEPTIDES AND PHARMACEUTICAL COMPOSITIONS” (Yuyu Pharma, Inc., priority 2020, published 2023)
